Test in all cases: NCI anticancer screen, dose series, 48 h
The subject of test [1] is A498.
The subject of test [2] is ACHN.
Test [3] deals with CCRF-CEM.
Test [4] has as its system HOP-62.
In test [5] the test system is IGROV-1.
Test [6] relates to K562.
The subject of test [7] is LOX IMVI.
The test system of test [8] is MCF7.
For test [9], the system named is Malme-3M.
Test [10] deals with NCI-H226.
For test [11], the system named is NCI-H522.
In test [12] the test system is PC-3.
In test [13] the test system is RPMI-8226.
For test [14], the system named is RXF 393.
Test [15] has as its system SF-268.
Test [16] relates to SK-MEL-5.
Test [17] concerns SN12C.
In test [18] the test system is SW-620.
Test [19] deals with T47D.
Test [20] deals with U-251.

This is an account of results in ChEMBL document CHEMBL1201862, “PubChem BioAssay data set” (2004).

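Compound exposure: 48 hours, 5 concentrations, 96-well plates. The concentration for 50% growth inhibition is given as GI50.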 The source made the active and inactive calls. Cut-off read from the data, not from the text of the source: active = GI50 up to about 1.1 µM and inactive = higher.

For the compound `N#C/C(=C/NC(=S)NCc1ccccc1)C(N)=O`, the GI50 in test [1], in [2], in test [3], in [4], in test [5] and in test [6] was > 100 µM (inactive) in each case. Further, the GI50 in test [7], in test [8], in test [9], in test [10], in [11] and in test [12] was > 100 µM (inactive) in each case. For the same compound, the GI50 in [13], in test [14], in test [15], in test [16], in test [17] and in test [18] was > 100 µM (inactive) each time. The GI50 in [19] and in test [20] was > 100 µM (inactive) each time.

Take `CC(C)(C)N(Cc1ccc2c(c1)OCO2)C(=O)/C=C\[S+]([O-])c1ccccc1` (stereo not given): the GI50 in test [1] was 9.48 µM (inactive); in test [2], 3.97 µM (inactive); in test [3], 0.83 µM (active); in test [4] it was 4.88 µM (inactive); in test [5], 3.21 µM (inactive); in test [6] it was 2.9 µM (inactive). Moreover, the GI50 in test [7] was 1.44 µM (inactive); in test [8], 2.77 µM (inactive); in [9], 1.91 µM (inactive); in test [10] it was 2.74 µM (inactive); in [11], 0.516 µM (active); in test [12] it was 2.5 µM (inactive). For the same compound, the GI50 in [13] was 1.67 µM (inactive); in test [14] it was 1.91 µM (inactive); in test [15], 1.23 µM (inactive); in test [16] it was 2.82 µM (inactive); in test [17], 2.63 µM (inactive); in [18] it was 2.07 µM (inactive). The GI50 is 2.56 µM (inactive) in test [19] and 4.33 µM (inactive) in test [20].
